Laboratory results from patent US10392419B2, “Modified cyclic dinucleotide compounds” (Boehringer Ingelheim International GmbH, priority 2017, dated 2019).

Tests used:
[1] = target: Human STING (hSTING, residues 155-341, wild-type sequence) (Homo sapiens, UniProt Q86WV6, H232R); assay: hSTING binding by differential scanning fluorimetry (DSF); conditions: for binding to human STING compared to the other diastereomer(s) of the same Example / thermal shift compared to ribose Example 5/Compound 23 in WO 2016/145102: in words
Description: Differential Scanning Fluorimetry (DSF)
Assay buffer: 20 mM Tris, 150 mM NaCl pH7.5
Target Protein: Human STING (hSTING, residues 155-341, wild-type sequence with N-terminal His8-tag and TEV-cleavage site, MW: 23601.5 Da)
Protein stock solution: c=309 μM stock solution in assay buffer
Final Assay concentrations of test compounds: 100 μM, 3 μM target protein, “5×” SYPR Orange
1) Compound stock solutions and dilutions thereof were prepared in assay buffer
2) 5 μl fluorescent dye stock solution (5000×SYPRO Orange) was mixed with 50 μl target protein (309 μM) and 945 μl buffer.
3) 2 μl of this protein-dye-mixture (25×SYPRO Orange and 15 μM Protein) was added to 8 μl compound solution.
4) Certain well positions were used as negative control.
5) The plates were prepared for duplicate measurement and centrifuged for 2 min at 1000 g.
6) In the measurement, 160 cycles of 0.5° C. were used (temperature ramp 15 s/cycle, 15° C. to 95° C.).
Data analysis: The dissociation curves were processed in Bio-Rad CFX Manager. Peak type was set to “negative”. In the case of Examples 1.1, 2.1, 3.1 and 4.1, at least two Tm measurements were averaged.

[2] = target: T1, human STING protein in THP1-Blue ISG cells (Homo sapiens, UniProt Q86WV6, G230A/H232R/R293Q/R71H); assay: In vitro cytokine induction, THP1-Blue ISG reporter cell assay (IRF-inducible SEAP); format: cell-based; conditions: 24 hours incubation, SEAP OD at 620 nm
T1 construct: endogenous STING levels from the parental, unmodified THP1-Blue ISG cell lines; endogenous in cells; host or cells: THP1-Blue ISG cells
Description: In Vitro Cytokine Induction
Activation of the STING protein expressed in THP1 cells results in an increase of interferon production. By the stable integration of an interferon regulatory factor (IRF)-inducible SEAP (secreted embryonic alkaline phosphatase) reporter construct the functional interferon signaling pathway can be monitored. Using Invivogen's QUANTI-Blue™ colorimetric enzyme assay and a suitable optical density (OD) reader the activity of SEAP can be detected and quantified. This technique could be used to characterize pharmacological modification of the STING protein.
Measurements of SEAP activity were performed in THP1-Blue ISG cells stably expressing the human STING protein and the IRF-inducible SEAP reporter construct. Cells were cultivated for expansion in RPMI1640 medium with 10% fetal calf serum, 50 μg/ml Penicillin-Streptomycin, 100 μg/ml Zeocin, and 100 μg/ml Normocin in a 37°, 95% humidity and 5% CO2 incubator. Assay-ready cells were stored as frozen stocks.
In preparation for the assay, the cells were thawed in Zeocin-/Normocin-free medium and were distributed into the assay plates with a density of 15000 cells/15 μL per well. Compounds were prepared by an 8- or 16-point serial dilution in 50% aqueous DMSO and a final dilution step into medium to ensure a final DMSO concentration of 0.5% in the assay. 5 μL of diluted compounds plus 5 μL medium were added to the plates, followed by a 24 hours incubation at 37° C.
At the day of the assay, 75 μl per well of Quanti-Blue reagent was added to all wells of the plate and the plate was incubated another 30 minutes at 37° C. The OD at 620 nm was measured on the EnVision reader (PerkinElmer). EC50 values and Hill slopes were derived from 8- or 16-point four parametric non-linear curve fittings with the Megalab software (Boehringer Ingelheim) using the OD at 620 nm.

[3] = 100 μM test compound, 3 μM target protein
[4] = 100 μM test compound, 3 μM target protein, Sodium Salt

Sequence of Human STING (hSTING, residues 155-341, wild-type sequence) (Q86WV6 155-341 H232R limits assumed): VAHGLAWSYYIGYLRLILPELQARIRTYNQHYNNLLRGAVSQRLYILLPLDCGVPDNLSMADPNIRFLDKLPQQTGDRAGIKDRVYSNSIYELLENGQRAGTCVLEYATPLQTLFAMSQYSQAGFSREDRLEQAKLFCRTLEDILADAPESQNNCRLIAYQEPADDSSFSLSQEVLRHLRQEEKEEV
T1 sequence (Q86WV6 whole entry R71H/G230A/H232R/R293Q): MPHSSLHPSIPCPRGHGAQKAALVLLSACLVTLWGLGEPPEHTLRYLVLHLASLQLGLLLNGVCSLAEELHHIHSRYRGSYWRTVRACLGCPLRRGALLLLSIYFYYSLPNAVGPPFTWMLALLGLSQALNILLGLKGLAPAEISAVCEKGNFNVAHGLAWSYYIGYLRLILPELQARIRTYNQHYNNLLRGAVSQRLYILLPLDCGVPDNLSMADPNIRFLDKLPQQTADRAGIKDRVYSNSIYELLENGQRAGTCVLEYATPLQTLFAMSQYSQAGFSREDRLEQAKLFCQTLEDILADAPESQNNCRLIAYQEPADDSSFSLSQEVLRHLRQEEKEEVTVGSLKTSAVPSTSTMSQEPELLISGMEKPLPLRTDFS

Row | ΔTm at 100 µM ([1]; 100 μM test compound, 3 μM target protein, read-out: hSTING Tm shift) [°C] | EC50 [2] [nM] | hSTING Tm shift [1, 3] [°C] | Compound | binding to human STING compared to the other diastereomer(s) of the same Example [1] | thermal shift compared to ribose Example 5/Compound 23 in WO 2016/145102 [1] | hSTING Tm shift [1, 4] [°C] | EC50 ([2]; Sodium Salt) [nM]
1 | 27.6 | 110 | – | Nc1ncnc2c1ncn2[C@@H]1O[C@@H]2COP(=O)(S)O[C@H]3[C@H]4OC[C@@]3(COP(=O)(S)O[C@H]2[C@H]1F)O[C@H]4n1cnc2c(N)ncnc21 (single isomer, unassigned) [Example 1.1, Cyclic (LNA-adenosine-(3′→5′)-phosphorothioate-2′-F-2′-deoxyadenosine-(3′→5′)-phosphorothioate)] | improved binding to human STING as compared to Example 1.2 | significantly larger thermal shifts | – | –
2 | – | 60 | 21.0 | Nc1ncnc2c1ncn2[C@@H]1O[C@@H]2COP(=O)(S)O[C@H]3[C@H]4OC[C@@]3(COP(=O)(S)O[C@H]2[C@H]1F)O[C@H]4n1cnc2c(N)ncnc21 (single isomer, unassigned) [Example 1.2, Cyclic (LNA-adenosine-(3′→5′)-phosphorothioate-2′-F-2′-deoxyadenosine-(3′→5′)-phosphorothioate)] | – | – | – | –
3 | – | – | 21.1 | Nc1nc2c(ncn2C2OC3COP(O)(=S)OC4C(COP(O)(=S)OC3C2F)OC(n2cnc3c(N)ncnc32)C4O)c(=O)[nH]1 (centres unmarked) [Example 5 Compound 23 in WO 2016/145102, 3′3′-RR-(2′F-G)(A), reference compound] | – | – | – | –
4 | – | – | – | Cyclic (LNA-adenosine-(3′→5′)-phosphorothioate-2′-F-2′-deoxyguanosine-(3′→5′)-phosphorothioate), Sodium Salt [Example 2.1] | improved binding to human STING as compared to Example 2.2 | significantly larger thermal shifts | 30.3 | 140
5 | – | – | – | Cyclic (LNA-adenosine-(3′→5′)-phosphorothioate-2′-F-2′-deoxyguanosine-(3′→5′)-phosphorothioate), Sodium Salt [Example 2.2] | – | – | 21.8 | 50
6 | – | – | – | Cyclic (LNA-adenosine-(3′→5′)-phosphorothioate-2′-F-2′-deoxyinosine-(3′→5′)-phosphorothioate), Sodium Salt [Example 4.1] | improved binding to human STING as compared to Example 4.2 | significantly larger thermal shifts | 30.0 | 170
7 | – | – | – | Cyclic (LNA-adenosine-(3′→5′)-phosphorothioate-2′-F-2′-deoxyinosine-(3′→5′)-phosphorothioate), Sodium Salt [Example 4.2] | – | – | 21.4 | 110
8 | – | – | – | Cyclic (LNA-guanosine-(3′→5′)-phosphorothioate-2′-F-2′-deoxyadenosine-(3′→5′)-phosphorothioate), Sodium Salt [Example 3.1] | improved binding to human STING as compared to other Example 3 diastereomers | significantly larger thermal shifts | 30.7 | 150
9 | – | – | – | Cyclic (LNA-guanosine-(3′→5′)-phosphorothioate-2′-F-2′-deoxyadenosine-(3′→5′)-phosphorothioate), Sodium Salt [Example 3.2] | – | – | 22.4 | 70
10 | – | – | – | Cyclic (LNA-guanosine-(3′→5′)-phosphorothioate-2′-F-2′-deoxyadenosine-(3′→5′)-phosphorothioate), Sodium Salt [Example 3.3] | – | – | 21.6 | 130
11 | – | – | – | Cyclic (LNA-guanosine-(3′→5′)-phosphorothioate-2′-F-2′-deoxyadenosine-(3′→5′)-phosphorothioate), Sodium Salt [Example 3.4] | – | – | 10.9 | 2000
